Values belong to the compound of their own block, whether it stands above or below them.
How the values were obtained:
[1] = Stability in Simulated Gastric Fluid (SGF); type: in vitro ADME; design: key: % parent compound remaining relative to 0-minute sample; details: % remaining @ 1 h
Procedure, shortened: (§1)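 Percent of parent remaining relative to time zero was measured by LC-MS/MS over 0–60 min at 37 °C, 150 rpm. Test compound was 2 μg/mL final in pepsin-containing SGF, pH 1.2, or pancreatin-containing SIF, pH 6.8. Degradation half-life was derived from the log-linear decay where enough points allowed.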

[2] = Caco-2 Permeability Assay; type: in vitro ADME, human; details: human, Caco-2, pH 7.4
Procedure, shortened: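 Bidirectional transport at 37 °C for 90 min, 10 μM donor concentration, with or without Pgp inhibitor, across 21-day Caco-2 monolayers with TEER >600 […] in HEPES-buffered HBSS, pH 7.4. LC-MS/MS of donor and receiver samples gives Papp, B→A/A→B efflux ratio and mass recovery.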

[3] = Stability in Simulated Intestinal Fluid (SIF); type: in vitro ADME; design: key: % parent compound remaining relative to 0-minute sample; details: % remaining @ 1 h
Procedure, shortened: as §1

[4] = Plasma Stability; type: in vitro ADME, human; details: % remaining @ 1 h
Procedure, shortened: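 Parent compound quantified by LC-MS/MS after acetonitrile precipitation, reported as percent of control remaining (triplicate). Incubation: 1 hour, 37° C, fresh human plasma, compound at 1 μM.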

SGF [1]: 100% @ 1 h
Papp at 90 min, 10 µM [2]: 12.9 ×10⁻⁶ cm/s
SIF [3]: 70% @ 1 h
human Plasma stability [4]: 2% @ 1 h
SMILES: CC(C)OCCn1c(=S)[nH]c(=O)c2c1ccn2COC(=O)[C@H](N)C(C)C [Example 300, trifluoroacetic acid {4-oxo-1-[2-(propan-2-yloxy)ethyl]-2-sulfanylidene-1H,2H,3H,4H,5H-pyrrolo[3,2-d]pyrimidin-5-yl}methyl (2R)-2-amino-3-methylbutanoate]

SMILES: CC(C)OCCn1c(=S)n(COC(=O)[C@H](N)C(C)C)c(=O)c2c1ccn2COC(=O)[C@H](N)C(C)C.O=C(O)C(F)(F)F.O=C(O)C(F)(F)F [Example 301, bis(trifluoroacetic acid) [3-({[(2R)-2-amino-3-methylbutanoyl]oxy}methyl)-4-oxo-1-[2-(propan-2-yloxy)ethyl]-2-sulfanylidene-1H,2H,3H,4H,5H-pyrrolo [3,2-d]pyrimidin-5-yl]methyl (2R)-2-amino-3-methylbutanoate]
SGF [1]: 97% @ 1 h
Papp at 90 min, 10 µM [2]: 1.72 ×10⁻⁶ cm/s
SIF [3]: 10% @ 1 h
human Plasma stability [4]: 5% @ 1 h

SMILES: CC(C)OCCn1c(=S)[nH]c(=O)c2c1ccn2COC(=O)[C@H](Cc1ccccc1)NC(=O)OC(C)(C)C [Example 302, {4-oxo-1-[2-(propan-2-yloxy)ethyl]-2-sulfanylidene-1H,2H,3H,4H,5H-pyrrolo[3,2-d]pyrimidin-5-yl}methyl (2S)-2-{[(tert-butoxy)carbonyl]amino}-3-phenylpropanoate]
SGF [1]: 97% @ 1 h
Papp at 90 min, 10 µM [2]: 4.48 ×10⁻⁶ cm/s
SIF [3]: 5% @ 1 h
human Plasma stability [4]: 67% @ 1 h

SMILES: CC(C)OCCn1c(SCOC(=O)[C@H](Cc2ccccc2)NC(=O)OC(C)(C)C)nc(=O)c2c1ccn2COC(=O)[C@H](Cc1ccccc1)NC(=O)OC(C)(C)C [Example 303, {[5-({[(2S)-2-{[(tert-butoxy)carbonyl]amino}-3-phenylpropanoyl]oxy}methyl)-4-oxo-1-[2-(propan-2-yloxy)ethyl]-1H,4H,5H-pyrrolo[3,2-d]pyrimidin-2-yl]sulfanyl}methyl (2S)-2-{[(tert-butoxy)carbonyl]amino}-3-phenylpropanoate]
SGF [1]: 46% @ 1 h
Papp at 90 min, 10 µM [2]: 5.56 ×10⁻⁶ cm/s
SIF [3]: 1% @ 1 h
human Plasma stability [4]: 28% @ 1 h

SMILES: CC(C)OCCn1c(=S)n(COC(=O)[C@H](Cc2ccccc2)NC(=O)OC(C)(C)C)c(=O)c2c1ccn2COC(=O)[C@H](Cc1ccccc1)NC(=O)OC(C)(C)C [Example 304, [3-({[(2S)-2-{[(tert-butoxy)carbonyl]amino}-3-phenylpropanoyl]oxy}methyl)-4-oxo-1-[2-(propan-2-yloxy)ethyl]-2-sulfanylidene-1H,2H,3H,4H,5H-pyrrolo[3,2-d]pyrimidin-5-yl]methyl (2S)-2-{[(tert-butoxy)carbonyl]amino}-3-phenylpropanoate]
SGF [1]: 44% @ 1 h
Papp at 90 min, 10 µM [2]: 0.34 ×10⁻⁶ cm/s
SIF [3]: 67% @ 1 h
human Plasma stability [4]: 99% @ 1 h

SMILES: CC(C)OCCn1c(=S)[nH]c(=O)c2c1ccn2COC(=O)[C@@H](Cc1ccccc1)NC(=O)OC(C)(C)C [Example 305, {4-oxo-1-[2-(propan-2-yloxy)ethyl]-2-sulfanylidene-1H,2H,3H,4H,5H-pyrrolo [3,2-d]pyrimidin-5-yl}methyl (2R)-2-{[(tert-butoxy)carbonyl]amino}-3-phenylpropanoate]
SGF [1]: 73% @ 1 h
Papp at 90 min, 10 µM [2]: 3.84 ×10⁻⁶ cm/s
SIF [3]: 1% @ 1 h
human Plasma stability [4]: 39% @ 1 h

SMILES: CC(C)OCCn1c(SCOC(=O)[C@@H](Cc2ccccc2)NC(=O)OC(C)(C)C)nc(=O)c2c1ccn2COC(=O)[C@@H](Cc1ccccc1)NC(=O)OC(C)(C)C [Example 306, {[5-({[(2R)-2-{[(tert-butoxy)carbonyl]amino}-3-phenylpropanoyl]oxy}methyl)-4-oxo-1-[2-(propan-2-yloxy)ethyl]-1H,4H,5H-pyrrolo[3,2-d]pyrimidin-2-yl]sulfanyl}methyl (2R)-2-{[(tert-butoxy)carbonyl]amino}-3-phenylpropanoate]
SGF [1]: 41% @ 1 h
Papp at 90 min, 10 µM [2]: 3.8 ×10⁻⁶ cm/s
SIF [3]: 1% @ 1 h
human Plasma stability [4]: 72% @ 1 h

SMILES: CC(C)OCCn1c(=S)n(COC(=O)[C@@H](Cc2ccccc2)NC(=O)OC(C)(C)C)c(=O)c2c1ccn2COC(=O)[C@@H](Cc1ccccc1)NC(=O)OC(C)(C)C [Example 307, [3-({[(2R)-2-{[(tert-butoxy)carbonyl]amino}-3-phenylpropanoyl]oxy}methyl)-4-oxo-1-[2-(propan-2-yloxy)ethyl]-2-sulfanylidene-1H,2H,3H,4H,5H-pyrrolo[3,2-d]pyrimidin-5-yl]methyl (2R)-2-{[(tert-butoxy)carbonyl]amino}-3-phenylpropanoate]
SGF [1]: 26% @ 1 h
Papp at 90 min, 10 µM [2]: 0.334 ×10⁻⁶ cm/s
SIF [3]: 43% @ 1 h
human Plasma stability [4]: 99% @ 1 h

SMILES: CC(C)OCCn1c(=S)[nH]c(=O)c2c1ccn2COC(=O)[C@@H](N)Cc1ccccc1.O=C(O)C(F)(F)F [Example 308, trifluoroacetic acid {4-oxo-1-[2-(propan-2-yloxy)ethyl]-2-sulfanylidene-1H,2H,3H,4H,5H-pyrrolo[3,2-d]pyrimidin-5-yl}methyl (2S)-2-amino-3-phenylpropanoate]
SGF [1]: 97% @ 1 h
Papp at 90 min, 10 µM [2]: < 0.364 ×10⁻⁶ cm/s
SIF [3]: 44% @ 1 h
human Plasma stability [4]: 2.5% @ 1 h

SMILES: CC(C)OCCn1c(SCOC(=O)[C@@H](N)Cc2ccccc2)nc(=O)c2c1ccn2COC(=O)[C@@H](N)Cc1ccccc1.O=C(O)C(F)(F)F.O=C(O)C(F)(F)F [Example 309, bis(trifluoroacetic acid) {[5-({[(2S)-2-amino-3-phenylpropanoyl]oxy}methyl)-4-oxo-1-[2-(propan-2-yloxy)ethyl]-1H,4H,5H-pyrrolo[3,2-d]pyrimidin-2-yl]sulfanyl}methyl (2S)-2-amino-3-phenylpropanoate]
SGF [1]: 98% @ 1 h
Papp at 90 min, 10 µM [2]: < 0.123 ×10⁻⁶ cm/s
SIF [3]: 86% @ 1 h
human Plasma stability [4]: 5% @ 1 h

SMILES: CC(C)OCCn1c(=S)[nH]c(=O)c2c1ccn2COC(=O)[C@H](N)Cc1ccccc1.O=C(O)C(F)(F)F [Example 311, trifluoroacetic acid {4-oxo-1-[2-(propan-2-yloxy)ethyl]-2-sulfanylidene-1H,2H,3H,4H,5H-pyrrolo[3,2-d]pyrimidin-5-yl}methyl (2R)-2-amino-3-phenylpropanoate]
SGF [1]: 98% @ 1 h
Papp at 90 min, 10 µM [2]: 5.44 ×10⁻⁶ cm/s
SIF [3]: 7% @ 1 h
human Plasma stability [4]: 4% @ 1 h

SMILES: CC(C)OCCn1c(=S)n(COC(=O)[C@H](N)Cc2ccccc2)c(=O)c2c1ccn2COC(=O)[C@H](N)Cc1ccccc1.O=C(O)C(F)(F)F.O=C(O)C(F)(F)F [Example 313, bis(trifluoroacetic acid) [3-({[(2R)-2-amino-3-phenylpropanoyl]oxy}methyl)-4-oxo-1-[2-(propan-2-yloxy)ethyl]-2-sulfanylidene-1H,2H,3H,4H,5H-pyrrolo[3,2-d]pyrimidin-5-yl]methyl (2R)-2-amino-3-phenylpropanoate]
SGF [1]: 88% @ 1 h
Papp at 90 min, 10 µM [2]: 0.49 ×10⁻⁶ cm/s
SIF [3]: 51% @ 1 h
human Plasma stability [4]: 99% @ 1 h

SMILES: CC(C)C[C@H](NC(=O)OC(C)(C)C)C(=O)OCn1c(=O)c2c(ccn2COC(=O)[C@H](CC(C)C)NC(=O)OC(C)(C)C)n(CCOC(C)C)c1=S [Example 316, [3-({[(2S)-2-{[(tert-butoxy)carbonyl]amino}-4-methylpentanoyl]oxy}methyl)-4-oxo-1-[2-(propan-2-yloxy)ethyl]-2-sulfanylidene-1H,2H,3H,4H,5H-pyrrolo [3,2-d]pyrimidin-5-yl]methyl (2S)-2-{[(tert-butoxy)carbonyl]amino}-4-methylpentanoate]
SGF [1]: 99%@ 1 h
Papp at 90 min, 10 µM [2]: 7.6 ×10⁻⁶ cm/s
SIF [3]: 6%@ 1 h
human Plasma stability [4]: 37%@ 1 h

SMILES: CC(C)C[C@@H](NC(=O)OC(C)(C)C)C(=O)OCn1ccc2c1c(=O)[nH]c(=S)n2CCOC(C)C [Example 317, {4-oxo-1-[2-(propan-2-yloxy)ethyl]-2-sulfanylidene-1H,2H,3H,4H,5H-pyrrolo[3,2-d]pyrimidin-5-yl}methyl (2R)-2-{[(tert-butoxy)carbonyl]amino}-4-methylpentanoate]
SGF [1]: 56%@ 1 h
Papp at 90 min, 10 µM [2]: 0.093 ×10⁻⁶ cm/s
SIF [3]: 30%@ 1 h
human Plasma stability [4]: 99%@ 1 h

SMILES: CC(C)C[C@@H](NC(=O)OC(C)(C)C)C(=O)OCSc1nc(=O)c2c(ccn2COC(=O)[C@@H](CC(C)C)NC(=O)OC(C)(C)C)n1CCOC(C)C [Example 318, {[5-({[(2R)-2-{[(tert-butoxy)carbonyl]amino}-4-methylpentanoyl]oxy}methyl)-4-oxo-1-[2-(propan-2-yloxy)ethyl]-1H,4H,5H-pyrrolo[3,2-d]pyrimidin-2-yl]sulfanyl}methyl (2R)-2-{[(tert-butoxy)carbonyl]amino}-4-methylpentanoate]
SGF [1]: 81%@ 1 h
Papp at 90 min, 10 µM [2]: 25.4 ×10⁻⁶ cm/s
SIF [3]: 2%@ 1 h
human Plasma stability [4]: 85%@ 1 h

SMILES: CC(C)C[C@@H](NC(=O)OC(C)(C)C)C(=O)OCn1c(=O)c2c(ccn2COC(=O)[C@@H](CC(C)C)NC(=O)OC(C)(C)C)n(CCOC(C)C)c1=S [Example 319, [3-({[(2R)-2-{[(tert-butoxy)carbonyl]amino}-4-methylpentanoyl]oxy}methyl)-4-oxo-1-[2-(propan-2-yloxy)ethyl]-2-sulfanylidene-1H,2H,3H,4H,5H-pyrrolo[3,2-d]pyrimidin-5-yl]methyl (2R)-2-{[(tert-butoxy)carbonyl]amino}-4-methylpentanoate]
SGF [1]: 34%@ 1 h
Papp at 90 min, 10 µM [2]: 10.5 ×10⁻⁶ cm/s
SIF [3]: 0%@ 1 h
human Plasma stability [4]: 42%@ 1 h

Source: patent US20240067651A1 (Biohaven Therapeutics Ltd., priority 2019, published 2024)
